Source: US20240141408A1, “CELL-BASED ASSAY FOR IDENTIFICATION OF ACTIVATORS OF GAMMA-SECRETASE” (The Brigham and Women’s Hospital, Inc., priority 2021, published 2024)

Test system: γ-secretase
Experiment: Notch target gene reporter (Hes1-Luc / NotchΔE) luciferase assay in stable MEFs
Format: cell-based, mouse
Details: L435F KI/+ stable cells, clone A23; FIG. 4
Method: For screening, cells were seeded in 384-well plates using Thermo Multidrop Combi at a density of 2,500 cells in 30 μl media and compounds were transferred by Seiko Compound Transfer Robot on the same day. For dose response, compounds were dispensed via the Hewlett Packard D300.
The steady glo luciferase assay system (Promega) was used to determine firefly luciferase activity per manufacturer's instructions. Luciferase activity was detected 24 hours after transfection using a plate reader (Perkin Elmer EnVision).
MEFs (1.5×10^6) were seeded in two 10-cm tissue culture plates; one to be used as a negative control. The next day, one plate is transfected with 9 μg CMV-NotchΔE (neomycin) and […] Hes1Luciferase (hygromycin) plasmids. 24-hours later, cells in both plates were passaged 1:100, 1:200 and 1:1000 and maintained in DMEM media supplied with 10% FBS, 100 ug/ml Hygromycin, and 200 μg/ml G418. Media was changed every 3 days and cells were checked daily ensuring that cells in the untransfected plates (negative control) have died. Within two weeks, hygromycin/G418 resistant colonies were formed with a diameter of approximately 5 mm. Each clone was transferred into a separate well of a 24-well plate. When confluent, MEFs were transferred into 6-well plates then into 10 cm dishes. For each clone, some cells were frozen while others harvested to test luciferase and notchΔE expression via luciferase assay, western blot and Q-RT-PCR.
For the identification of compounds that could increase the activity of γ-secretase, a Notch target gene reporter system was created. It contains two plasmids: Hes1 proximal promoter containing two Notch responsive CBF1/RBPJκ binding sites driving expression of a firefly luciferase in a hygromycin resistant plasmid (Hes1-Luc-Hygro), and CMV promoter and NotchΔE cloned in a neomycin resistant plasmid (CMV-NΔE-Neo) (FIG. 1A).
For the identification of compounds that could increase γ-secretase activity, L435F KI/+ stable cells expressing both CMV-NΔE-Neo and Hes1-Luc-hygro were generated. Luciferase expression in the selected clones was confirmed via a luciferase assay (FIG. 3A). We also performed quantitative RTPCR using primers specific for luciferase and Notch-cMyc to confirm their expression (FIG. 3B-C).
After generating the stable cells, 384-well plates were optimized in the EnVision plate reader for plate dimension, and crosstalk correction. To provide a robust (high Z′ factor) HTS-compatible assay, four clones expressing different levels of NotchΔE and luciferase (FIG. 3A-C, black arrows) were compared to identify the maximum difference in signal between DMSO, and DAPT (γ-secretase inhibitor), as well as genetic positive (a clone expressing high levels of luciferase) controls. […]

SMILES	luciferase activity
CC(C)C[C@H](NC(=O)[C@H](Cc1ccccc1)C[C@@H](O)[C@H](Cc1ccccc1)NC(=O)OC(C)(C)C)C(=O)N[C@@H](Cc1ccccc1)C(N)=O [L685,458]	reduction of luciferase activity
C[C@@H](C(=O)O)c1ccc(-c2ccccc2)c(F)c1 [R-Flurbiprofen]	lesser effect
C[C@H](NC(=O)Cc1cc(F)cc(F)c1)C(=O)N[C@H](C(=O)OC(C)(C)C)c1ccccc1 [DAPT]	reduction of luciferase activity
COc1ccc2c(c1)c(CC(=O)O)c(C)n2C(=O)c1ccc(Cl)cc1 [Indomethacin]	lesser effect
